In general, IC50 refers to the concentration that gives 50% inhibition.

Structures are written as SMILES.

The target of series [1] is T1, recombinant HIV reverse transcriptase (HIV RTR) (Human immunodeficiency virus type 1 group M subtype B, UniProt P04585).
T1 construct: recombinant HIV reverse transcriptase (HIV RTR)
Nature of the series: Reverse Transcriptase Assay. It counts as biochemical. Conditions: incorporation of [3H]dGMP into acid-precipitable cDNA; dGTP and poly r(C).oligo d(G)12-18 at Km; 37° C., 45 minutes; read-out: calculated IC50 value. As for the experimental part: The assay measures the incorporation of tritiated deoxyguanosine monophosphate by recombinant HIV reverse transcriptase (HIV RTR) (or other RT) into acid-precipitable cDNA at the Km values of dGTP and poly r(C).oligo d(G)12-18.
Thirty uL of a reaction mixture containing equal volumes of: 500 mM Tris.HCl (pH 8.2), 300 mM MgCl2, 1200 mM KCl, 10 mM DTT, 400 μg/mL poly r(c).oligo d(G) [prepared by dissolving 1.5 mg (25 U) poly r(C).oligo d(G) in 1.5 ml sterile distilled H2 O and diluting to 400 μg/ml], 0.1 μCi/μl [^3 H] dGTP, 160 μM dGTP, was added to 10 μl sterile distilled H2 O, and 2.5 μl of potential inhibitor. An aliquot of 10 μL of 5 nM purified HIV RTR was added to initiate the reaction. The mixture was incubated at 37° C. for 45 minutes.
After incubation is complete, the tubes were cooled in ice for 5 minutes. Ice-cold 13% TCA containing 10 mM NaPPi (200 μl) are added and the mixture incubated on ice for 30 minutes. The precipitated cDNA is removed by filtration using presoaked glass filters [TCA, NaPPi ]. The precipitate is then washed with 1N HCl, 10 mM NaPPi.
The filter discs are then counted in a scintillation counter.
Under these conditions [dGTP] and poly r(C).oligo d(G)12-18 each are approximately equal to the appropriate Km value. Approximately 5-6,000 cpm of [^3 H] GMP are incorporated into acid-precipitable material. The RT reaction is concentration- and time-dependent.

Series [2] can be described thus: Incubation With Rat Liver Slices. It counts as in vitro ADME. The procedure: Incubation of tritiated 3-[2-(benzoxazol-2-yl)ethyl]-5-ethyl-6-methyl-2-(1H)-pyridinone (parent compound/14.18 μmol) with rat liver slices (6.1 g) in 100 ml of Williams Medium E at pH. […] Ethyl acetate extraction gave a recovery of ~70% of the tritiated material, while ~25% (~9 HPLC peaks) remained in the aqueous residue.

Regarding `Cc1[nH]c(=O)c(CCc2nc3ccccc3o2)cc1C(C)O` (stereo not drawn) [compound (I), 3-[2-(benzoxazol-2-yl)ethyl]-5-(1-hydroxyethyl)-6-methyl-2(1H)-pyridinone], the half-maximal inhibitory concentration (IC50) in series [1] is around 710 nM. The “radioactive HPLC peak, share of the total metabolites” value in series [2] (ethyl acetate extract after four hours incubation of parent compound with rat liver slices) is reported as ~ 37%.

Consider `CCc1cc(CCc2nc3ccccc3o2)c(O)nc1C` [parent compound, 3-[2-(Benzoxazol-2-yl)ethyl]-5-ethyl-6-methyl-2-(1H)-pyridinone], for which the metabolised at 4 h in series [2] (tritiated compound 14.18 μmol, rat liver slices 6.1 g, Williams Medium E, pH 7.4, 37° C., four hours, read-out: metabolism) is around 32%.

The record behind these values is patent US5387512A, “Preparation of 3-[z-benzoxazol-2-yl)ethyl]-5-(1-hydroxyethyl)-6-methyl-2-(1H)-pyridinon e by biotransformation” (Merck & Co. Inc., priority 1992, dated 1995).
